These results are taken from PubChem BioAssay AID192 (DTP/NCI, 2004).

For the experiment, the system named is BDF1 mice, B16 melanoma ip, median survival T/C. In words: NCI In Vivo Anticancer Drug Screen. Data for tumor model B16 Melanoma (intraperitoneal) in B6D2F1 (BDF1) mice. To be noted: endpoint: median survival time, higher = longer survival. In a few lines:
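Compounds were tested in mice carrying transplantable tumors. Survival or tumor size was recorded, and each value is the treated-group measurement (T) divided by that of the vehicle-treated control group (C).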

[1] abbreviates: dose: 100.0 mg/kg/injection, schedule: Q01DX009 (ip), vehicle: Klucel (hydroxypropylcellulose) (HPC).
Setting [2] is: dose: 200.0 mg/kg/injection, schedule: Q01DX009 (ip), vehicle: Klucel (hydroxypropylcellulose) (HPC).
Setting [3] is: dose: 400.0 mg/kg/injection, schedule: Q01DX009 (ip), vehicle: Klucel (hydroxypropylcellulose) (HPC).
Setting [4] is: dose: 12.5 mg/kg/injection, schedule: Q01DX009 (ip), vehicle: saline with Tween-80.
The mark [5] stands for this setting: dose: 25.0 mg/kg/injection, schedule: Q01DX009 (ip), vehicle: saline with Tween-80.
[6] abbreviates: dose: 50.0 mg/kg/injection, schedule: Q01DX009 (ip), vehicle: saline with Tween-80.
[7] abbreviates: dose: 100.0 mg/kg/injection, schedule: Q01DX009 (ip), vehicle: saline with Tween-80.
Where [8] appears, read: dose: 25.0 mg/kg/injection, schedule: Q01DX009 (ip), vehicle: Klucel (hydroxypropylcellulose) (HPC).
Where [9] appears, read: dose: 50.0 mg/kg/injection, schedule: Q01DX009 (ip), vehicle: Klucel (hydroxypropylcellulose) (HPC).

Values joined by “and” are separate entries in the source; they are usually repeats but may differ in a detail not shown here. Equal values may be shown once. Toxic doses and inconclusive results are not listed.

Turning to `Cc1ccc(C)c(NC(=O)Nc2ccccc2Cl)c1`, the T/C is 86 % of control (dose: 25.0 mg/kg/injection, schedule: Q01DX009 (ip), vehicle: gum acacia); 90 % of control (dose: 50.0 mg/kg/injection, schedule: Q01DX009 (ip), vehicle: gum acacia); 88 % of control (dose: 100.0 mg/kg/injection, schedule: Q01DX009 (ip), vehicle: gum acacia); 90 % of control (dose: 100.0 mg/kg/injection, schedule: Q04DX003 (ip), vehicle: gum acacia).

With `C=CCNC(=S)NCC=C`, the T/C under setting [1] was 97 % of control, the T/C under setting [2] was 92 % of control and the T/C under setting [3] is 102 % of control.

Regarding `CCOC(=O)/N=[N+](\[O-])c1ccccc1`, the T/C is 97 % of control (dose: 3.12 mg/kg/injection, schedule: Q01DX009 (ip), vehicle: saline with Tween-80); 100 % of control (dose: 6.25 mg/kg/injection, schedule: Q01DX009 (ip), vehicle: saline with Tween-80); 105 % of control under setting [4]; 104 % of control under setting [5].

Turning to `NC(=O)CC(NC(=O)CCl)C(=O)O` (stereo unspecified), the T/C runs as follows: under setting [6], 98 % of control; under setting [7], 99 % of control.

As to `CC(C)(C)c1cc([N+](=O)[O-])cc(C(C)(C)C)c1O`, the T/C runs as follows: under setting [8], 95 % of control; under setting [9], 93 % of control; under setting [1], 95 % of control.

With `CCCCCC(O)C1C(=O)OC(C)C(O)/C=C/C=C/C=C/C=C/C=C(\C)C(O)C(O)C(O)CC(O)CC(O)CC(O)CC(O)CC1O` (stereo unspecified), the T/C reads like this: (dose: 0.78 mg/kg/injection, schedule: Q01DX009 (ip), vehicle: saline) 124 % of control; (dose: 1.0 mg/kg/injection, schedule: Q01DX009 (ip), vehicle: saline) 116 % of control; (dose: 1.56 mg/kg/injection, schedule: Q01DX009 (ip), vehicle: saline) 119 % of control; (dose: 1.78 mg/kg/injection, schedule: Q01DX009 (ip), vehicle: saline) 122 % of control; (dose: 2.0 mg/kg/injection, schedule: Q01DX009 (ip), vehicle: saline) 123 % of control; (dose: 3.12 mg/kg/injection, schedule: Q01DX009 (ip), vehicle: saline) 103 % of control. Also, the T/C (dose: 4.0 mg/kg/injection, schedule: Q01DX009 (ip), vehicle: saline) was 154 % of control.

Regarding `CCCCC(CC)CCC(O)CCC(CC)CC` (stereo unspecified), the T/C under setting [1] was 90 % of control and the T/C under setting [3] is 87 % of control.

`O=C(CCCN1CCC(n2c(=O)[nH]c3ccccc32)CC1)c1ccc(F)cc1`: the T/C is, setting by setting: (dose: 0.78 mg/kg/injection, schedule: Q01DX009 (ip), vehicle: Klucel (hydroxypropylcellulose) (HPC)) 121 % of control; (dose: 3.12 mg/kg/injection, schedule: Q01DX009 (ip), vehicle: Klucel (hydroxypropylcellulose) (HPC)) 86 % of control; (dose: 6.25 mg/kg/injection, schedule: Q01DX009 (ip), vehicle: Klucel (hydroxypropylcellulose) (HPC)) 92 % of control; (dose: 12.5 mg/kg/injection, schedule: Q01DX009 (ip), vehicle: Klucel (hydroxypropylcellulose) (HPC)) 89 % of control; under setting [8], 89 % of control and 94 % of control.

Take `CC(=O)Nc1cc2c(cc1[N+](=O)[O-])-c1ccccc1C2O` (stereo unspecified): the T/C is 105 % of control (dose: 50.0 mg/kg/injection, schedule: Q04DX003 (ip), vehicle: saline with Tween-80); 110 % of control (dose: 100.0 mg/kg/injection, schedule: Q04DX003 (ip), vehicle: saline with Tween-80); 105 % of control (dose: 200.0 mg/kg/injection, schedule: Q04DX003 (ip), vehicle: saline with Tween-80).

`CC(C)C1(c2ccsc2)NC(=O)NC1=O` (stereo unspecified): the T/C is 108 % of control under setting [9], 122 % of control under setting [1] and 109 % of control under setting [2].

`CC(C)(COC(=O)c1ccccc1)COC(=O)c1ccccc1`: the T/C is 111 % of control under setting [1], 105 % of control under setting [2] and 99 % of control under setting [3].

For the compound `CCCCC(CC)C1OC(=O)C(C)O1` (stereo unspecified), the T/C was 98 % of control (dose: 100.0 mg/kg/injection, schedule: Q04DX003 (ip), vehicle: Klucel (hydroxypropylcellulose) (HPC)) and 100 % of control (dose: 200.0 mg/kg/injection, schedule: Q04DX003 (ip), vehicle: Klucel (hydroxypropylcellulose) (HPC)).

In the case of `Cc1cc(C)cc(OC(=O)/C=C/C(=O)Oc2cc(C)cc(C)c2)c1`, the T/C runs as follows: under setting [5], 98 % of control; under setting [6], 87 % of control; under setting [7], 93 % of control.

As for `O=C(N/N=C/c1ccc(O)cc1O)c1cccnc1`, the T/C (dose: 25.0 mg/kg/injection, schedule: Q01DX009 (ip), vehicle: olive oil, sesame oil, peanut oil) is 86 % of control.

As to `CN=S(=O)(OCCCCCOS(=O)(=NC)c1ccccc1)c1ccccc1` (stereo unspecified), the T/C was 111 % of control (dose: 1.5 mg/kg/injection, schedule: Q01DX009 (ip), vehicle: saline with Tween-80); 104 % of control (dose: 3.0 mg/kg/injection, schedule: Q01DX009 (ip), vehicle: saline with Tween-80); 122 % of control (dose: 6.0 mg/kg/injection, schedule: Q01DX009 (ip), vehicle: saline with Tween-80); 94 % of control under setting [4]; 169 % of control (dose: 24.0 mg/kg/injection, schedule: Q01DX009 (ip), vehicle: saline with Tween-80); 122 % of control under setting [5].

Regarding `COc1cc(C(=O)N2CCOCC2)cc(OC)c1OC`, the T/C is 110 % of control under setting [8]; 102 % of control under setting [9]; 92 % of control under setting [1]; 97 % of control under setting [2]; 102 % of control under setting [3].
